Measurements as given in ChEMBL document CHEMBL1201862, “PubChem BioAssay data set” (2004).
Active and inactive are the calls of the source.

How the values were obtained:
[1] = Luminescence Cell-Based Dose Retest to Confirm Inhibitors of Cancer Stem Cells. [Related pubchem assays (depositor defined):AID2717, AID2721]; format: functional; conditions: Homo sapiens
H9c2 = test: cells; format: functional, cell-based; conditions: Rattus norvegicus, H9c2, Myocardium
[2] = Luminescence Cell-Based Dose Response HTS to Identify Activators of Luciferase Translation or Activity in H4 […] Cells. [Related pubchem assays: 1829 (Project Summary), 1814 (Primary HTS)]; format: functional
[3] = Luminescence Cell-Based Dose Confirmation HTS to Identify Activators of 5'UTR Stem-Loop Driven Alpha-Synuclein mRNA Translation in H4 Neuroglioblastoma Cells. [Related pubchem assays: 1829 (Project Summary), 1814 (Primary HTS)]; format: functional
H4 = test: Luminescence Cell-Based Dose Response HTS to Identify Activators of 5'UTR Stem-Loop Driven Prion Protein mRNA Translation in H4 Neuroglioblastoma Cells. [Related pubchem assays: 1829 (Project Summary), 1814 (Primary HTS)]; format: functional; conditions: Homo sapiens
Protein RecA = biological target: T1, Protein RecA (Mycobacterium tuberculosis, UniProt P9WHJ3); test: Fluorescence Cell-Free Homogeneous Dose Retest to Identify Inhibitors of RecA-Intein Splicing Activity. [Related pubchem assays (depositor defined):AID2097, AID2223, AID489010, AID492950]; format: functional
T1 sequence (P9WHJ3 whole entry): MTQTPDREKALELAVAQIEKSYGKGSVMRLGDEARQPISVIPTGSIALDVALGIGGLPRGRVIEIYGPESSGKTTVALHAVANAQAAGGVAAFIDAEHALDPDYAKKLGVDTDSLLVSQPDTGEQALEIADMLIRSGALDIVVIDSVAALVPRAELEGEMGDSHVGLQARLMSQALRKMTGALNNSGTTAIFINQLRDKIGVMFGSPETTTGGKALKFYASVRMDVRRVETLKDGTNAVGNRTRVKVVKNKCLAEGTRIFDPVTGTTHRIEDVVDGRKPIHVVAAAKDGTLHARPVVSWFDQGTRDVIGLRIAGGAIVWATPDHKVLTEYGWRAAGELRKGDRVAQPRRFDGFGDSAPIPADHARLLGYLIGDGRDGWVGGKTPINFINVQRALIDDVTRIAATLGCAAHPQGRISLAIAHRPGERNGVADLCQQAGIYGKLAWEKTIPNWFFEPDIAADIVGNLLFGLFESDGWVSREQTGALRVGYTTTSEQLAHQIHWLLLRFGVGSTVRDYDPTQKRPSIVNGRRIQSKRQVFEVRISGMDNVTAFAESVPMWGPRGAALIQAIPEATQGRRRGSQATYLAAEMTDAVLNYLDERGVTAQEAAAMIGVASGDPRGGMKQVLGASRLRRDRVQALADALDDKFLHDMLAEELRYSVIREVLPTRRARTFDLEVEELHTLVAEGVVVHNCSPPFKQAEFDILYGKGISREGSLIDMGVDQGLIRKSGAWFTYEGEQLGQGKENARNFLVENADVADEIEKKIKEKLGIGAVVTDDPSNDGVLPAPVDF

[4] = biological target: T2, Replicative DNA helicase DnaB (Mycobacterium tuberculosis, UniProt P9WMR3); test: DnaB intein splicing inhibitors, dose response, biochemical, cell-free fluorescence (AID 449749); format: functional
T2 sequence (P9WMR3 whole entry): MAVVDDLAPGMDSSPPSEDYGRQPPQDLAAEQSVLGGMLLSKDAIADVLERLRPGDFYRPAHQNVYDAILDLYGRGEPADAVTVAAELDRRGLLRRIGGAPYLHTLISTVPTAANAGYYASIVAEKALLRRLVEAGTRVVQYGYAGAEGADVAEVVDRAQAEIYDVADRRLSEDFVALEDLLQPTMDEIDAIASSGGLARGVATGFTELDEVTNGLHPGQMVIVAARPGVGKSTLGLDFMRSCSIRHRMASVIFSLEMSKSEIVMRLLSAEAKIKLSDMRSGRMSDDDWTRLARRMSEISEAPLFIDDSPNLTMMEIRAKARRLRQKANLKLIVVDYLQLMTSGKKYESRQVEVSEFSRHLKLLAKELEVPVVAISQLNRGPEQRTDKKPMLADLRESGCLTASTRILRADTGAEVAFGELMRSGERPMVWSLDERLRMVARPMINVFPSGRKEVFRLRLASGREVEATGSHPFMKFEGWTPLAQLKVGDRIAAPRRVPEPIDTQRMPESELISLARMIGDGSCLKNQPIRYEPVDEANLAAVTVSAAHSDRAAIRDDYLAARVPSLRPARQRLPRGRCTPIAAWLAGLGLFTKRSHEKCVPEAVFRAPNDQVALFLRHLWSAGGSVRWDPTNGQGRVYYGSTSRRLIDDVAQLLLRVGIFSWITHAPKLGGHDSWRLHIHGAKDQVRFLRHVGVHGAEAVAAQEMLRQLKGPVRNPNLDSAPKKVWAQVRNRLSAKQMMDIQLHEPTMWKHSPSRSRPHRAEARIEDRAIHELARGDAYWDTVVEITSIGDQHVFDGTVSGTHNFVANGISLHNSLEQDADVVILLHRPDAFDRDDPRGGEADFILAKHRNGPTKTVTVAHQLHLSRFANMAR

[5] = HEp-2 cell cytotoxicity, dose response, cytotoxicity control for RSV inhibitor project, HTS (AID 2410); format: functional; conditions: human respiratory syncytial virus
[6] = biological target: T3, Rac GTPase-activating protein 1 (Homo sapiens, UniProt Q9H0H5); test: MgcRacGAP GTPase-activating activity inhibitors, confirmation, biochemical, ADP Hunter fluorescence, primary and confirmatory (AID 624330); format: functional
T3 sequence (Q9H0H5 whole entry): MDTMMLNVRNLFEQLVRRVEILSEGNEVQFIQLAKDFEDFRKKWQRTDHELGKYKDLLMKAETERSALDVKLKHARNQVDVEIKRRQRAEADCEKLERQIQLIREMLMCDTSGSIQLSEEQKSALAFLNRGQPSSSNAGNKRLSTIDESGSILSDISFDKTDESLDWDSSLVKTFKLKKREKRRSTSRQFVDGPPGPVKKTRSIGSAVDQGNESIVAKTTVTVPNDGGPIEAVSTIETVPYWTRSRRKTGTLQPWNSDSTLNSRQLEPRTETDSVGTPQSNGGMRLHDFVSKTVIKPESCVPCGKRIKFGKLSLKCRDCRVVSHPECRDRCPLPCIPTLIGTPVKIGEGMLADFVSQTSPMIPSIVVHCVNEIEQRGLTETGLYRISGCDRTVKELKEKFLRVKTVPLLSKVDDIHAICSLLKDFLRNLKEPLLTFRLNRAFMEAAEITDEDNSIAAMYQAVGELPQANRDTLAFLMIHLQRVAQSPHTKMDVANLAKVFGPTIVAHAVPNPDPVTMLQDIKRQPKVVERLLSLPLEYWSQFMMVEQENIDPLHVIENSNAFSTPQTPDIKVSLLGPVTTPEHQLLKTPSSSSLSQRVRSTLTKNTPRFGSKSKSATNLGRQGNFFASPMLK

[7] = cytotoxicity toward NIH3T3 fibroblasts, dose response, counter-screen, cell-based, ATP luminescence, mouse fibroblasts (AID 2010); format: functional;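 further: cells exposed to compound for about 90 hours before reading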
[8] = inhibitors of intracellular T. cruzi replication, confirmation, NIH3T3 host cells, beta-gal luminescence (AID 2044); format: functional, cell-based;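 further: intracellular parasites grown in NIH/3T3 mouse fibroblasts as host cells; luminescent beta-galactosidase reporter signal from transgenic T. cruzi replicating inside host cells; inhibitors lower the luminescence signal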
[9] = microbe, parasite or virus in culture; format: functional; conditions: Mycobacterium tuberculosis

## O=C(NCCCNC(=O)c1nc[nH]c1C(=O)Nc1cccc(Cl)c1)c1nc[nH]c1C(=O)Nc1cccc(Cl)c1
[1]
  AC50: 3.78 µM (active)
H9c2
  IC50: > 79 µM (inactive)

## COc1ccc2oc(=O)c(-c3nc4ccccc4o3)cc2c1
[2]
  EC50: 17.2 µM (active)
[3]
  EC50: 3.5 µM (active)
H4
  EC50: 24.1 µM (active)

## COc1cc(C(=O)CSc2nnc(-c3ccc(O)cc3)n2CC2CCCO2)ccc1NC(C)=O (stereo not given)
Protein RecA
  EC50: > 380 µM (inactive)
[4]
  AC50: > 380 µM (inactive)

## Cc1ccc(Cn2nnc3c(O)nc(C4CCN(S(=O)(=O)c5ccccc5F)CC4)nc32)cc1
[5]
  CC50: 22.2 µM (active)

## O=C(Nc1ccccc1Cl)Oc1ccc(-c2ccccc2)cc1
[6]
  IC50: 11.3 µM (active)

## O=C1NC(=S)S/C1=C1\Sc2ccccc2N1CCCS(=O)(=O)O
[6]
  IC50: 123 µM (active)

## O=C(NNC(=O)c1ccc([N+](=O)[O-])o1)c1ccccc1
[7]
  EC50: > 60 µM (not active)
Protein RecA
  EC50: 13.5 µM (active)
[8]
  EC50: 0.13 µM (active)
[4]
  AC50: 23.5 µM (active)

## Brc1ccc(C2=NC(Cc3ccccc3)CO2)cc1 (stereo not given)
[2]
  EC50: 3.81 µM (active)
[3]
  EC50: 3.58 µM (active)
H4
  EC50: 7.48 µM (active)

## COc1ccc(S[C@@H](CCN2CC[C@H](NC(=O)OCc3ccccc3)CCC2=O)c2ccccc2)cc1
[1]
  AC50: 3.09 µM (active)

## O=C(CN1C(=O)S/C(=C\c2ccc(O)cc2)C1=O)c1ccccc1
[2]
  EC50: 6.77 µM (active)
[3]
  EC50: 6.38 µM (active)
H4
  EC50: 26 µM (active)

## Cn1c(=O)c2c(SCc3c(F)cccc3Cl)nc(CC(C)(C)C)nc2n(C)c1=O
[5]
  CC50: 30.1 µM (active)

## CC1CCCC2(C1)N=C(S)c1c(sc3c1CCCC3)N2 (stereo not given)
[2]
  EC50: > 120 µM (not active)
[3]
  EC50: > 120 µM (not active)
H4
  EC50: > 120 µM (not active)

## OCc1ccc[n+](/C(C([S-])=Nc2ccc(SC(F)F)cc2)=C(/O)c2ccc(Cl)s2)c1
[2]
  EC50: 14.2 µM (inconclusive)
[3]
  EC50: 13.4 µM (active)
H4
  EC50: 18.2 µM (active)

## Cc1nc(S(=O)(=O)N(C)Cc2ccccc2)c(C#N)c(C)c1Cl
[2]
  EC50: 60.4 µM (active)
[3]
  EC50: 5.83 µM (active)
H4
  EC50: > 120 µM (not active)

## O=C(Nc1ccc(O)cc1)c1cc2n(n1)C(C(F)(F)F)CC(c1ccco1)N2 (stereo not given)
[6]
  IC50: 27.7 µM (active)

## CCOc1ccccc1N(C(=O)Nc1ccc(Cl)cc1)C1=NCCS1
[1]
  AC50: 5.46 µM (active)

## NC(=O)[C@H](Cc1cc2ccccc2s1)NC(=O)[C@@H]1CC2(CC(c3cccc(NC(=O)[C@@H]4CCC(=O)N4)c3)=NO2)CN1C(=O)/C=C/c1c(F)cccc1Cl (stereo not given in full)
Protein RecA
  EC50: 168 µM (active)
[4]
  AC50: 20 µM (active)

## O=C(NCc1nnnn1-c1ccc(F)cc1)c1ccc([N+](=O)[O-])o1
[2]
  EC50: > 60 µM (not active)
[9]
  CC50: 19.3 µM (active)
[3]
  EC50: 8.58 µM (active)
H4
  EC50: 29 µM (active)

## O=C(CSCc1cc(O)n[nH]1)Nc1ccc(F)cc1
Protein RecA
  EC50: 1.74 µM (active)
[4]
  AC50: 4.04 µM (active)

## O=C(Nc1ccc(O)cc1)c1ccccc1OCc1ccccc1
[6]
  IC50: 30.1 µM (active)

## Cc1ccc2c(c1)c1c(n2CC(O)CN2CCCCCC2)CCCC1 (stereo not given)
Protein RecA
  EC50: > 380 µM (inactive)
[4]
  AC50: > 380 µM (inactive)

## COc1cccc(OC)c1C(=O)N1CCN(Cc2ccc3c(c2)OCO3)CC1
[6]
  IC50: 248 µM (active)

## CN(c1ccccc1)S(=O)(=O)c1cccc(NC(=O)c2cncc(Br)c2)c1
[5]
  CC50: 12.4 µM (active)

## O=C(O)c1cc(NN=C2CCN(Cc3ccccc3)CC2)ccc1Cl
[2]
  EC50: 22.9 µM (active)
[3]
  EC50: > 120 µM (not active)
H4
  EC50: 18.7 µM (active)

## COc1cccc(CN2CCN(Cc3cccc(Oc4ccccc4)c3)CC2)c1OC
[6]
  IC50: 93.1 µM (active)

## CCOc1cc(-c2cc(-c3ccc(N)cc3)nc(N)c2C#N)ccc1O
[6]
  IC50: 131 µM (active)
H9c2
  IC50: > 79 µM (inactive)

## Cn1c(N)c(-c2nc3cccnc3n2C)sc1=S
[2]
  EC50: 9.72 µM (active)
[3]
  EC50: > 120 µM (not active)
H4
  EC50: > 120 µM (not active)

## NC(=O)CC(NC(=O)Cc1ccc(Br)cc1)c1ccc(NC2CC3CCC2C3)c([N+](=O)[O-])c1 (stereo not given)
[1]
  AC50: 6.22 µM (active)

## Cc1ccccc1Nc1nc(N)nc(COC(=O)c2ccccc2)n1
[2]
  EC50: 25.1 µM (active)
[3]
  EC50: 40.5 µM (active)
H4
  EC50: 25.7 µM (active)

## CCO/C(O)=C1/Sc2ccccc2N=C1C
[6]
  IC50: 53.5 µM (active)

## CC(/C=N/n1c(S)nnc1C1CCCCC1)=C\c1ccccc1
[9]
  CC50: > 40 µM (active)
[1]
  AC50: 4.26 µM (active)

## CC(=O)N(CCC(Cc1ccccc1)c1ccc2c(c1)OCO2)Cc1ccccc1F (stereo not given)
Protein RecA
  EC50: 5.78 µM (active)
[4]
  AC50: 3.39 µM (active)

## COc1ccc(/C=C2/C(=O)N(c3ccccc3)N=C2C)cc1OC
Protein RecA
  EC50: 1.46 µM (active)
[4]
  AC50: 3.78 µM (active)

## CN1C2=CC=CC=CC2=[N+](C)C12C([N+](=O)[O-])=CC(=[N+]([O-])[O-])C=C2[N+](=O)[O-] (stereo not given)
[2]
  EC50: > 120 µM (not active)
[3]
  EC50: > 120 µM (not active)
H4
  EC50: > 120 µM (not active)

## Cc1ccc(CNc2cnn(C34CC5CC(CC(C5)C3)C4)c(=O)c2Cl)cc1
[1]
  AC50: 1.18 µM (active)

## Cc1ccc(-c2ccc(NC(=O)C3C4C=CC(C4)C3C(=O)O)cc2)o1 (stereo not given)
[2]
  EC50: 33.5 µM (active)
[3]
  EC50: 2.07 µM (active)
H4
  EC50: > 120 µM (not active)

## CCOC(=O)C(=O)NNc1ccc(F)cc1
[1]
  AC50: 0.837 µM (active)

## Cc1cc(NC(=O)/C=C/c2ccc(Cl)cc2)no1
[1]
  AC50: 22.8 µM (active)
